Assay results taken from patent publication US20230414575A1, “MK2 ACTIVATING COMPOUNDS FOR USE IN TREATING VASCULAR LEAK AND ENDOTHELIAL BARRIER DISORDERS” (Akttyva Therapeutics, Inc., priority 2020, published 2023).
Counter-ions that a name gives are not always drawn.

Experiments:
[1] = molecular target: T1, MK2 (Rattus norvegicus, UniProt Q80ZF4); assay: ELISA MK2 cell-based activity assay (phospho-HSP-27), RMVEC cells; settings: compound 20 μM, 30 minutes, 37° C.; for Average Response HSP27: phospho-HSP27 ELISA
T1 construct: endogenous in cells; host or cells: rat microvascular endothelial cells (RMVEC)
T1 sequence (Q80ZF4 1-386): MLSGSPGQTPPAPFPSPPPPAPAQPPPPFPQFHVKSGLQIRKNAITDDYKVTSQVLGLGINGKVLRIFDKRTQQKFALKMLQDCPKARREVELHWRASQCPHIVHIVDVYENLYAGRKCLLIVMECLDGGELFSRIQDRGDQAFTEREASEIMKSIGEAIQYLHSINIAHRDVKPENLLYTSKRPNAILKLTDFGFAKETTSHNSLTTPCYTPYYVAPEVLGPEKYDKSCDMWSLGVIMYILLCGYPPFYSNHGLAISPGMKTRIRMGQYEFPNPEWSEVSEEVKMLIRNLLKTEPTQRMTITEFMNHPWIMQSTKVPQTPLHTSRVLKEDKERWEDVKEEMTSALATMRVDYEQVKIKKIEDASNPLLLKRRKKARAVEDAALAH
Protocol: (§1) The MK2 activator candidates, identified using the artificial intelligence (AI)-assisted docking approach, were tested in activity assays for lead selection against the MK2 target. MK2 activation was assessed using (a) a cell-based assay using rat microvascular endothelial cells (RMVEC) and (b) human cancer skin fibroblast cells (Malme-3M). In both assays, an Enzyme-linked ImmunoSorbent Assay (ELISA) technique was used to measure (HSP-27) phosphorylation (DYC2314-2, R&D Systems). Both cell lines were grown to confluency in a 96-well tissue culture plate and treated at 37° C. for 30 minutes with the test compounds at concentrations of 20 μM. The cells were subsequently lysed with a lysis solution containing 0.5% Triton X-100 and anti-proteolysis agents. The resulting lysates were then loaded onto ELISA plates coated with anti-rat phospho-HSP27. After incubation and washing, the plates were treated with an horseradish peroxidase (HRP)-conjugated anti-phospho-HSP27 secondary antibody and then measured for chemiluminescence. Higher activity compounds, acting on MK2, induced higher levels of HSP-27 phosphorylation, as measured by the ELISA.

[2] = molecular target: T2, MK2 (Homo sapiens, UniProt P49137); assay: ELISA MK2 cell-based activity assay (phospho-HSP-27), Malme-3M cells; settings: for Ratio to Control / Pho-HSP27: Malme-3M cells, compound 20 μM, 30 minutes, 37° C.; for Pho-HSP27: phospho-HSP27 ELISA; for response in phospho-HSP27 ELISA, overall ranking: overall statement on compounds tested at 20 μM (Malme-3M and RMVEC cells)
T2 construct: endogenous in cells; host or cells: Malme-3M
T2 sequence (P49137 whole entry): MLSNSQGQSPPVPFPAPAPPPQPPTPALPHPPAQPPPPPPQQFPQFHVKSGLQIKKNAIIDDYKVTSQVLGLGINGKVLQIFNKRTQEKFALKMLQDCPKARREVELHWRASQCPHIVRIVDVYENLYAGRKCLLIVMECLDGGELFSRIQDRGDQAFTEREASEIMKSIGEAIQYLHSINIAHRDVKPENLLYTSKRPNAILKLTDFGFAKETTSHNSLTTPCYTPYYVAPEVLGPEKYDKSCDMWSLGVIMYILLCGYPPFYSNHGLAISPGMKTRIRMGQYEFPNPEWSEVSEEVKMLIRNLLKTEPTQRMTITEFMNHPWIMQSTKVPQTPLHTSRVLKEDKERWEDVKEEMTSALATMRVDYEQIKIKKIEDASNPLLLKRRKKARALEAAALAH
Protocol: as §1

Row | Molecule | Ratio Compound/control [1] | Average Response HSP27 [1] | Ratio to Control [2] | Pho-HSP27 [2] | response in phospho-HSP27 ELISA, overall ranking [2]
1 | c1cc(OCCN2CCCCC2)cc(-c2n[nH]c3ccc(-c4nc[nH]n4)cc23)c1 [CC-401 Hydrochloride] | 0.9 | 6.3 pg/mL | – | – | –
2 | O=C(Nc1ccc(-c2ccnc(Nc3ccc(N4CCOCC4)cc3)n2)cc1)C1CCCN1 (centres unmarked) [Compound 78, Xl-019] | 0.6 | 15.2 pg/mL | 0.7 | 15.0 pg/mL | –
3 | O=C(Nc1cccc(C2=NCCN2)c1)Nc1cccc(C2=NCCN2)c1 [Imidocarb dipropionate] | 1.3 | 11.7 pg/mL | – | – | –
4 | NC(=O)[C@@H](CCC(F)(F)F)N(Cc1ccc(-c2ncon2)cc1F)S(=O)(=O)c1ccc(Cl)cc1 [Compound 115, Avagacestat] | 0.8 | 5.7 pg/mL | – | – | –
5 | CNCc1ccc(C)c(NC(=O)c2ccc(Nc3nc(-c4ccccc4)c4ccccc4n3)cc2)c1 [Compound 57, Bms - 833923] | 1.3 | 8.8 pg/mL | – | – | –
6 | CCn1cc(-c2ccnc3[nH]c(-c4cccc(CN(C)C)c4)cc23)c(-c2ccc(NC(=O)N(C)C)cc2)n1 [Compound 28, Gsk-1070916] | 0.2 | 0.9 pg/mL | – | – | –
7 | Cn1cc(-c2ccc(F)c(C(F)(F)F)c2)nc1C1CCN(c2ncnc3[nH]ncc23)CC1 [Compound 30, Ly-2584702] | 0.3 | 0.0 pg/mL | – | – | –
8 | O=C(O)CCn1c2c(c3ccccc31)C[C@H](NS(=O)(=O)c1ccc(F)cc1)CC2 [Compound 93, Ramatroban] | 1.3 | 27.6 pg/mL | 1.5 | 33.2 pg/mL | –
9 | C=CCn1c(=O)c2cnc(Nc3ccc(N4CCN(C)CC4)cc3)nc2n1-c1cccc(C(C)(C)O)n1 [Compound 36, Azd-1775] | 0.9 | 21.4 pg/mL | 0.7 | 15.7 pg/mL | –
10 | CC(C)c1cc(CNc2nc(Nc3cc(C4CC4)[nH]n3)cc(N3CCN(C)CC3)n2)on1 [Compound 43, Xl-228] | 0.4 | 5.7 pg/mL | – | – | –
11 | O=C(O)c1ccc2nc(-c3cc(Cl)cc(Cl)c3)oc2c1 [Compound 95, Tafamidis] | 0.8 | 18.6 pg/mL | 1.1 | 24.1 pg/mL | –
12 | Cc1nc2n(c(=O)c1CCN1CCC(c3noc4cc(F)ccc34)CC1)CCCC2O (centres unmarked) [Compound 20, Paliperidone] | 1.1 | 4.3 pg/mL | – | – | –
13 | Cn1c(Nc2ccc(C(F)(F)F)cc2)nc2cc(Oc3ccnc(-c4ncc(C(F)(F)F)[nH]4)c3)ccc21 [Compound 47, Chir-265] | 0.9 | 8.5 pg/mL | – | – | –
14 | CN(C)Cc1c(C(=O)NCCOc2ccc(C(=O)NO)cc2)oc2ccccc12 [Compound 54, Abexinostat] | 2.3 | 48.4 pg/mL | 37.2 | 836.0 pg/mL | most robust response
15 | Cl.Cl.OCCN1CCN(CCC=C2c3ccccc3Sc3ccc(C(F)(F)F)cc32)CC1 (mixture of isomers) [Flupenthixol dihydrochloride] | 1.1 | 10.4 pg/mL | – | – | –
16 | Cl.Cl.Cl.O[C@@H](COc1cccc2ncccc12)CN1CCN([C@@H]2c3ccccc3[C@@H]3[C@H](c4ccccc42)C3(F)F)CC1 [Zosuquidar (LY335979) 3HCl] | 0.7 | 11.8 pg/mL | – | – | –
17 | Cc1nc(Nc2[nH]nc3c2CN(C(=O)N[C@H](CN(C)C)c2ccccc2)C3(C)C)c2sccc2n1 [Compound 39, Pf-03758309] | 1.0 | 4.8 pg/mL | – | – | –
18 | CCN1CCN(Cc2ccc(NC(=O)Nc3ccc(Oc4cc(NC)ncn4)cc3)cc2C(F)(F)F)CC1 [Compound 55, Ast-487] | 1.3 | 9.0 pg/mL | – | – | –
19 | N=C(N)c1ccc2cc(OC(=O)c3ccc(N=C(N)N)cc3)ccc2c1 [Nafamostat Mesylate] | 1.3 | 11.7 pg/mL | – | – | –

Row | Molecule | Ratio Compound/control [1] | Average Response HSP27 [1] | Ratio to Control [2] | Pho-HSP27 [2] | response in phospho-HSP27 ELISA, overall ranking [2]
20 | Cc1cc(N2CCN([C@@H]3CN[C@H](C(=O)N4CCSC4)C3)CC2)n(-c2ccccc2)n1 [Teneligliptin hydrobromide] | 0.8 | 4.0 pg/mL | – | – | –
21 | COCCOc1ccc(N2CCN(CCn3ncc4c3nc(N)n3nc(-c5ccco5)nc43)CC2)cc1 [Compound 106, Preladenant] | 0.9 | 4.2 pg/mL | – | – | –
22 | O=C1Cc2cc(CCN3CCN(c4nsc5ccccc45)CC3)c(Cl)cc2N1 [Ziprasidone HCl] | 1.5 | 32.3 pg/mL | – | – | –
23 | MK2-AP (batch#2): presumably the positively charged MK2-activating peptide YARAAARQARAHPRNPARRTPGTRRGAPAA (SEQ ID NO: 7) (MK2 peptide fragment) | 2.7 | 11.7 pg/mL | – | – | –
24 | O=C1Cc2cc(CCN3CCN(c4nsc5ccccc45)CC3)c(Cl)cc2N1 [Compound 24, Ziprasidone] | – | – | 1.6 | 35.4 pg/mL | –
25 | CCc1cc(/C(C)=N/OCc2ccc(C3CCCCC3)c(C(F)(F)F)c2)ccc1CN1CC(C(=O)O)C1 [Compound 76, Siponimod] | 1.0 | 6.6 pg/mL | – | – | –
26 | O=C1[C@H]2CCCC[C@H]2C(=O)N1CCCCN1CCN(c2nsc3ccccc23)CC1 [Perospirone hydrochloride] | 2.2 | 43.2 pg/mL | – | – | –
27 | O=C1[C@H]2CCCC[C@H]2C(=O)N1CCCCN1CCN(c2nsc3ccccc23)CC1 [Compound 23, Perospirone] | – | – | 32.0 | 720.7 pg/mL | most robust response
28 | Cc1cc(Nc2cc(N3CCN(C)CC3)nc(/C=C/c3ccccc3)n2)n[nH]1 [Compound 56, Enmd-2076] | 0.3 | 4.6 pg/mL | – | – | –
29 | Cc1ccccc1-c1cc(N2CCN(C)CC2)ncc1N(C)C(=O)C(C)(C)c1cc(C(F)(F)F)cc(C(F)(F)F)c1 [Compound 9, Netupitant] | 0.7 | 2.7 pg/mL | – | – | –
30 | Delavirdine (mesylate) | 1.1 | 18.4 pg/mL | – | – | –
31 | Cc1oncc1C(=O)Nc1ccc(C(F)(F)F)cc1 [Compound 72, Leflunomide] | 1.3 | 5.2 pg/mL | – | – | –
32 | CC(=O)N1CCN(CCOc2ccc(C3CCN(C4=Nn5c(nnc5C(F)(F)F)CC4)CC3)cc2)CC1 [Compound 44, Azd3514] | 0.9 | 5.9 pg/mL | – | – | –
33 | CC(C)Nc1cccnc1N1CCN(C(=O)c2cc3cc(NS(C)(=O)=O)ccc3[nH]2)CC1 [Compound 108, Delavirdine] | – | – | 0.8 | 17.3 pg/mL | –
34 | OCC(O)CN1CCN(c2ccccc2)CC1 (centres unmarked) [Dropropizine] | 0.1 | 1.2 pg/mL | – | – | –
35 | Cc1c(NC(=O)OC[C@@H]2COCCN2)cn2ncnc(Nc3ccc4c(cnn4Cc4cccc(F)c4)c3)c12 [Compound 49, Ac-480] | 1.3 | 12.1 pg/mL | – | – | –
36 | COc1cc2ncnc(Oc3cccc(NC(=O)Nc4cc(C(C)(C)C(F)(F)F)on4)c3)c2cc1OC [Compound 27, Cep-32496] | 0.9 | 6.2 pg/mL | – | – | –
37 | CCS(=O)(=O)c1cccc(-c2cc(C(=O)NC3CCN(C)CC3)c(C)c3[nH]c4ncc(C)cc4c23)c1 [Compound 46, Tak-901] | 0.2 | -0.2 pg/mL | – | – | –
